The source of these data is patent US9499584B2, “GPCR with improved cell surface expression” (CANVAX BIOTECH S.L, priority 2012, dated 2016).

In series [1] the test system is RBL-2H3. Kind of series: Influence of VGS mutations on surface expression of human HTR1B in RBL-2H3 cells, flow cytometry after magnetic bead separation (Example 4). Type of series: cell-based. The following applies: for Median fluorescence intensity of positive cells, x-median (range) / Percentage of positive cells after selection (range): human HTR1B, MoMLV5′LTR promoter, RBL-2H3, triplicate; for Percentage of positive cells after selection (range): magnetic bead separated. From the text:
Vectors were developed for stable expression of human HTR1B without the methionine at position 1 in mammalian cells under the control of Moloney Leukaemia virus 5′-LTR promoter (MoMLV5′LTR, SEQ ID NO: 6). All vectors had the neomycin resistance gene for selection of stable eukaryotic cells and mouse immunoglobulin kappa signal peptide followed by a c-myc tag (EQKLISEEDLN peptide). Vectors included no VGS, native VGS or two VGS mutants (VGS mutant 1 and VGS mutant 2). This experiment was designed to test if serine and threonine at VGS which represent potential […] glycosylation sites are the molecular determinants of improved surface expression. In VGS mutant 1 all 5 serine and threonine were mutated to alanine while in VGS mutant 2 all serine were mutated and 2 threonines were still present.
Each vector was individually electroporated by triplicate using a microporator (Digital Bio Technology, South Korea) into RBL-2H3 and after 48 hours neomycin at 500 ug/mL was added to culture for selection. After selection for about 2 weeks cells were analysed by flow cytometry (Guava Technologies, USA) with anti-cmyc tag antibody (anti-cmyc-FITC, clone 9E10, Sigma-Aldrich, USA) for surface expression. Selected cells were separated by using magnetic beads from Miltenyi and anti-cmyc tag. Results were expressed as percentage of positive cells after subtraction of values from non transfected RBL-2H3 cells incubated with the same anti-cmyc tag antibody. For positive cells median fluorescence intensity (x-median) was taken as a marker of surface receptor density on the surface of positive cells.
Background: In flow cytometry, cells or beads pass a laser one at a time.

Series [2] deals with BW5147.G.1.4.ovar.1. Kind of series: Surface expression of HT1BR in stably transfected BW5147 cells, flow cytometry with anti-cmyc tag antibody (Example 2). The following applies: MoMLV5′LTR promoter. The class given is cell-based, mouse. From the text:
(§1) Vectors were developed for stable expression of GPCRs in hematopoietic cells without professional regulated exocytosis under the control of Moloney Leukaemia virus 5′-LTR (MoMLV5′LTR, SEQ ID NO: 6), a good promoter for expression of GPCRs tested previously for more than 20 different GPCRs. The vector had neomycin resistance gene for selection of stable eukaryotic cells, mouse immunoglobulin kappa signal peptide followed by a c-myc tag (EQKLISEEDLN peptide) and the entire HT1BR GPCR without the methionine at position 1. This GPCR is a prototype of a receptor that it is difficult to be expressed into RBL-2H3. Two vectors were developed: one with a heterologous viral-GPCR derived sequence (VGS) and one without VGS. Each vector was individually electroporated using a microporator (Digital Bio Technology, South Korea) into WEHI-3B, a mouse myelomonocytic leukaemia cell line (DSMZ, ACC26) and into BW5147.G.1.4.ovar.1, a mouse lymphoma T cell line (HPA cultures, Cat. No. 88100507) and after 48 hours neomycin was added to culture for selection. After selection for about 2 weeks cells were analysed by flow cytometry (Guava Technologies, USA) with anti-cmyc tag antibody (anti-cmyc-FITC, clone 9E10, Sigma-Aldrich, USA) for surface expression.

Series [3] has as its system WEHI-3B. Kind of series: Surface expression of HT1BR in stably transfected WEHI-3B cells, flow cytometry with anti-cmyc tag antibody (Example 2). The class given is cell-based, mouse.
Text: as §1

In series [4] the test system is HEK293 cells. Kind of series: Surface expression of human HTR1B in stably transfected HEK293 cells, flow cytometry with anti-cmyc tag antibody (Example 3). The following applies: HEK293, MoMLV5′LTR promoter. Type of series: cell-based. From the text: Vectors were developed for stable expression of GPCRs in mammalian cells under the control of the following promoters: Moloney Leukaemia virus 5′-LTR (MoMLV5′LTR, SEQ ID NO: 6), human phosphoglycerate kinase promoter (SEQ ID NO: 4) and human elongation factor 1 alpha promoter (hEF1alpha, SEQ ID NO: 3). All vectors had the neomycin resistance gene for selection of stable eukaryotic cells, mouse immunoglobulin kappa signal peptide followed by a c-myc tag (EQKLISEEDLN peptide), a sequence derived from a heterologous viral-GPCR (VGS, SEQ ID NO: 2) and the entire human HTR1B without the methionine at position 1. Such heterologous viral-GPCR derived sequence was included to test if surface expression is improved by certain heterologous viral-GPCR derived sequences in non-hematopoietic cell lines. […] After selection for about 2 weeks cells were analysed by flow cytometry (Guava Technologies, USA) with anti-cmyc tag antibody (anti-cmyc-FITC, clone 9E10, Sigma-Aldrich, USA) for surface expression. Results were expressed as percentage of positive cells after subtraction of values from non transfected HEK293 cells incubated with the same anti-cmyc tag antibody. […] For positive cells mean fluorescence intensity (MFI) was taken as a marker of surface receptor density on the surface of positive cells.

On to “LAAMAPGAAVGA [VGS mutant 1, all 5 serine and threonine mutated to alanine]”, for which, in series [1], the “Median fluorescence intensity of positive cells, x-median (range)” value is 45.6 (44.9-46.2) and the “Percentage of positive cells after selection (range)” value (from here on “Percentage … after selection (range)”) was 49.1 (47.5-50.7) %.
On to “LAAMAPGATVGT [VGS mutant 2, all serine mutated, 2 threonines still present]”, for which, in series [1] (RBL-2H3, MoMLV5′LTR promoter), the “Reduction of median fluorescence intensity versus native VGS” value amounted to 1.43 fold. Moreover, the “Percentage … after selection (range)” value in series [1] is on record as 49.2 (48.2-50.2) %.
For the substance LSTMAPGSTVGT [VGS native], the “Increase of median fluorescence intensity of positive cells versus no VGS” value in series [1] (RBL-2H3, MoMLV5′LTR promoter) is 2.6 fold. Further, the “Median fluorescence intensity of positive cells, x-median (range)” value in series [1] is 89.3 (87.7-90.9); in series [1] (listed as native VGS), 89.3. Also, the “Percentage … after selection (range)” value in series [1] is given as 50.2 (49.2-51.1) %; in series [1] (listed as native VGS), 50%.
Consider “VGS: Heterologous viral-GPCR derived sequence (VGS, SEQ ID NO: 2) added at the amino terminus of the GPCR (CTGAGCACAATGGCCCCAGGCTCCACCGTGGGAACA; expressed or natural sequence)”, for which the “Ratio of percentage of cells with surface expression with VGS versus without” value in series [2] is on record as “about 15 times”. The “Percentage of positive cells after selection” value in series [3] (HT1BR, WEHI 3B cells, about 2 weeks neomycin selection) is “about 50%”. Further, the “Ratio of percentage of positive cells with VGS versus without” value in series [3] (WEHI-3B cells, MoMLV5′LTR promoter) was 1.6 times. The “Improvement of percentage of positive cells by inclusion of VGS” value in series [4] was 2.7 fold.
